{"source": "paper PMC4198181", "about": "“Gold(I) Complexes of 9-Deazahypoxanthine as Selective Antitumor and Anti-Inflammatory Agents” (PLoS ONE, 2014)", "test_system": "polymorphonuclear cells infiltration in hind paw tissue", "assay": "Ex vivo histological evaluation of hind paw tissue (HE staining, PMN infiltration)", "type": "in vivo, Wistar-SPF rats", "conditions": "6 h after carrageenan, Indomethacin 5 mg/kg", "protocol": "The carrageenan-induced hind paw edema model was used for the determination of anti-inflammatory activity. Animals were i.p. pretreated with complexes 2, 4, and 5 (the dosages of the individual complexes were adjusted to contain the same amount of gold as in 10 mg/kg dose of Auranofin), Indomethacin (5 mg/kg), or 25% DMSO (v/v in water) 30 min prior to the injection of 1% λ-carrageenan solution (50 µL) into the plantar side of right hind paws of the rats. The paw volume was measured immediately after the carrageenan injection (this value was set-up as baseline value for the hind paw volume) and during the next 6 h after the administration of the edematogenic agent using a plethysmometer (model 7159, Ugo Basile, Varese, Italy). The degree of swelling was evaluated as a percentage of the change of the volume of the right hind paw after the carrageenan treatment from the baseline volume. A non-steroidal anti-inflammatory drug Indomethacin was used as a positive control and the obtained data were also compared with the previously reported profile of antiedematous activity for Auranofin [38]. After 6 h, the animals were sacrificed and the edematous feet were dissected, the tissue from the plantar parts was extracted, fixed and stained by a standard hematoxylin/eosin (HE) staining for cytological evaluation of polymorphonuclear cells infiltration.\nTo assess the tissue consequences connected with the reduction of inflammation caused by the tested compounds after the intraplantar injection of carrageenan, the histopathological observations were made on the tissue sections obtained from the laboratory animals after the plethysmometric experiments were finished. All animals were sacrificed by cervical dislocation, and immediately after that, the tissue samples were taken from the plantar area of hind paws. The histopathological changes in tissues, stained by the standard HE staining (see Figure 10), were evaluated by the presence of the inflammation infiltrate, which contained mainly neutrophils (polymorphonuclear cells - PMN)."}
{"compound": "COc1ccc2c(c1)c(CC(=O)O)c(C)n2C(=O)c1ccc(Cl)cc1", "note": "[Indomethacin, reference compound]", "values": [{"measurement": "PMN (neutrophil) infiltrate in hind paw tissue sections", "value": "mainly scarce and diffuse"}]}
